Laboratory results: patent publication US10577362B2, “Substituted 2, 4-diamino-quinoline derivatives for use in the treatment of proliferative diseases” (GENOSCIENCE PHARMA, priority 2016, dated 2020)
Structures can show the parent of a compound that is named as a salt.

Tests used:
Type in all cases: cell-based, human
[1] = tested on: A375 (malignant melanoma) cell line; assay: CellTiter-Glo luminescent cell viability assay, A375; conditions: Homo sapiens, A-375; for viability at 4 µM: A375, compound at 4 μM; for viability at 4 µM / viability at 10 µM: 72 h; for viability at 10 µM: A375, compound at 10 μM; for EC50: A375 cell line, 72 h incubation, CellTiter-Glo, read-out: EC50, growth inhibition of A375
Experimental: (§1) All cell lines were maintained in medium containing 1% penicillin-streptomycin (Dutscher, P06-07100) and 10% Fetal Bovine Serum (Hyclone Dutscher, RZK35922) cultured at 37° C. with 5% CO2. HepG2 (hepatocellular carcinoma), cell line was cultured in Dulbecco's modified Eagle's medium low glucose (Gibco, 21885025), Huh7 (hepatocellular carcinoma), HCT-116 (colorectal carcinoma), PANC-1 (prancreatic carcinoma) and A375 (malignant melanoma) cell lines were cultured in Dulbecco's modified Eagle's medium (Dutscher, L0103). MOLM-14 (acute myeloid leukemia) cell line was maintained in MEM alpha medium (Gibco, 22561-021). 786-0 (renal adenocarcinoma) cell lines were maintained in RPMI 1640 medium (Dutscher, L0498).
(§2) Cell viability was measured using the CellTiter-Glo® luminescent cell viability assay as described by the manufacturer (Promega, Ref G7571) using an Infinite F200Pro luminometer (Tecan). Briefly, for adherent cells, cells were plated onto 96-well plates (white with clear bottom) in 90 μL of media per well and were allowed to grow overnight before the assay. For cells growing in suspension, cells were plated onto 96-well plates 1 h before the assay.
(§3) Compounds were resuspended in H2O or DMSO and added at different concentrations to each well, and cell cultures were incubated for 72 h. Each diluent (H2O or DMSO) were used as a control, and all compounds were tested in a constant percentage of H2O or DMSO. On the day of the reading, plates are equilibrated 30 min at room temperature before the addition of 100 μL of CellTiter-Glo® and luminescence was measured using an Infinite F200Pro (Tecan). % cell viability were expressed as a percentage of the signal obtained for cell cultures treated with diluent. EC50 values were determined as the dose of compound required to reduce luminescent values to 50% of the signal obtained for cell cultures treated with diluent. The experimental data were analyzed using a computer program, Graphpad Prism v5 (GraphPad Software, Inc. La Jolla, Calif.). All points were at least done in duplicate.

[2] = tested on: Huh7 (hepatocellular carcinoma) cell line; assay: CellTiter-Glo luminescent cell viability assay, Huh7; conditions: Homo sapiens, Huh-7; for viability at 4 µM: Huh7, compound at 4 μM; for viability at 4 µM / viability at 10 µM: 72 h; for viability at 10 µM: Huh7, compound at 10 μM; for EC50: Huh7 cell line, 72 h incubation, CellTiter-Glo, read-out: EC50, growth inhibition of Huh7
Experimental: as §1, §2, §3

[3] = tested on: HepG2 (hepatocellular carcinoma) cell line; assay: CellTiter-Glo luminescent cell viability assay, HepG2; conditions: Homo sapiens; for viability at 4 µM / viability at 10 µM: HepG2, HepG, 72 h; for viability at 4 µM: compound at 4 μM; for viability at 10 µM: compound at 10 μM; for EC50: HepG2 cell line, 72 h incubation, CellTiter-Glo, read-out: EC50, growth inhibition of HepG2
Experimental: as §1, §2, §3

[4] = tested on: 786-O (renal adenocarcinoma) cell line; assay: CellTiter-Glo luminescent cell viability assay, 786-O; conditions: Homo sapiens, 786-0; for viability at 4 µM / viability at 10 µM: 786-O, 72 h; for viability at 4 µM: compound at 4 μM; for viability at 10 µM: compound at 10 μM; for EC50: 786-O cell line, 72 h incubation, CellTiter-Glo, read-out: EC50, growth inhibition of 786-O
Experimental: as §1, §2, §3

[5] = tested on: MOLM-14 (acute myeloid leukemia) cell line; assay: CellTiter-Glo luminescent cell viability assay, MOLM-14; conditions: Homo sapiens; for viability at 4 µM: MOLM-14, compound at 4 μM; for viability at 4 µM / viability at 10 µM: 72 h; for viability at 10 µM: MOLM-14, compound at 10 μM; for EC50: MOLM-14 cell line, 72 h incubation, CellTiter-Glo, read-out: EC50, growth inhibition of MOLM-14
Experimental: as §1, §2, §3

[6] = tested on: HCT-116 (colorectal carcinoma) cell line; assay: CellTiter-Glo luminescent cell viability assay, HCT-116; conditions: Homo sapiens; for viability at 4 µM: HCT-116, compound at 4 μM; for viability at 4 µM / viability at 10 µM: 72 h; for viability at 10 µM: HCT-116, compound at 10 μM; for EC50: HCT-116 cell line, 72 h incubation, CellTiter-Glo, read-out: EC50, growth inhibition of HCT-116
Experimental: as §1, §2, §3

Row | Structure (SMILES) | EC50 [1] | EC50 [2] | EC50 [3] | EC50 [4] | EC50 [5] | EC50 [6] | viability at 4 µM [1] | viability at 10 µM [1] | viability at 4 µM [2] | viability at 10 µM [2] | viability at 4 µM [3] | viability at 10 µM [3] | viability at 4 µM [4] | viability at 10 µM [4] | viability at 4 µM [5] | viability at 10 µM [5] | viability at 4 µM [6] | viability at 10 µM [6]
1 | Cc1cc(CNc2nc3ccccc3c(N3CCC(NC(C)(C)C)CC3)c2C#N)ccc1Nc1nccc(-c2cccnc2)n1 [Compound 498CN, 2-[4-(4-(pyridin-3-yl)pyrimidin-2-ylamino)-3-methylbenzylamino]-3-cyano-4-(4-tert-butylaminopiperidin-1-yl)quinoline] | – | – | – | – | – | – | 0.2% | 0.1% | 58.5% | 0.2% | 0.2% | 0.1% | 0.2% | 0.1% | 0.3% | 0.2% | 0.2% | 0.1%
2 | Cc1c(Nc2cccc(Nc3nccc(C(F)(F)F)n3)c2)nc2ccccc2c1N1CCC(NC(C)(C)C)CC1 [Compound 540Me, 2-[3-(4-trifluoromethylpyrimidin-2-ylamino)phenylamino]-3-methyl-4-(4-tert-butylaminopiperidin-1-yl)quinoline] | – | – | – | – | – | – | 1.6% | 0.1% | 63.9% | 0.2% | 38.3% | 0.1% | 2.6% | 0.1% | 63.1% | 0.3% | 0.4% | 0.1%
3 | Cc1cc(F)c2nc(NCc3ccc(Cl)cc3)cc(N3CCC(NC(C)(C)C)CC3)c2c1 [Compound 568, 2-(4-chlorobenzylamino)-4-[4-(tert-butylamino)piperidin-1-yl]-6-methyl-8-fluoroquinoline] | 0.5 to 5 µM | 5 to 10 µM | 0.5 to 5 µM | 0.5 to 5 µM | 0.5 to 5 µM | 0.5 to 5 µM | – | – | – | – | – | – | – | – | – | – | – | –
4 | Cc1ccc(Nc2nc3ccccc3c(N3CCC(NC(C)(C)C)CC3)c2C#N)cc1 [Compound 3248CN, 2-(4-methylphenylamino)-3-cyano-4-[4-(tert-butylamino)piperidin-1-yl]quinoline] | – | – | – | – | – | – | 79.2% | 0.4% | 89.3% | 56.3% | 109% | 73.1% | 100% | 27.7% | 88.5% | 53.4% | 88.9% | 0.5%
5 | Cc1ccc2c(N3CCC(NC(C)(C)C)CC3)cc(NCc3ccc(Cl)cc3)nc2c1F [Compound 564, 2-(4-chlorobenzylamino)-4-[4-(tert-butylamino)piperidin-1-yl]-7-methyl-8-fluoroquinoline] | 0.5 to 5 µM | 5 to 10 µM | 0.5 to 5 µM | 0.5 to 5 µM | 0.5 to 5 µM | 0.5 to 5 µM | – | – | – | – | – | – | – | – | – | – | – | –
6 | Cc1nccnc1OC1CCN(c2c(C#N)c(NCc3ccc(Cl)cc3)nc3ccccc23)CC1 [Compound 2970CN, 2-(4-chlorobenzylamino)-3-cyano-4-{4-[(3-methylpyrazin-2-yl)oxy]piperidin-1-yl}quinoline] | – | – | – | – | – | – | 91.9% | 80.8% | 63.7% | 53.4% | 87.8% | 63.3% | 89.4% | 79.8% | 92% | 61.2% | 70.5% | 47%
7 | N#Cc1c(NCc2ccc(Cl)cc2)nc2ccccc2c1N1CCCC(Oc2cccc(F)c2)C1 (stereo not shown) [Compound 3240CN, 2-(4-chlorobenzylamino)-3-cyano-4-[3-(3-fluorophenoxy)piperidin-1-yl]quinoline] | – | – | – | – | – | – | 95.6% | 94.9% | 123% | 113% | 97% | – | 98.2% | 94.5% | 106% | 113% | 99.4% | 95.8%

The next lines start with results.

Row | EC50 [1] | EC50 [2] | EC50 [3] | EC50 [4] | EC50 [5] | EC50 [6] | Structure (SMILES) | viability at 4 µM [1] | viability at 10 µM [1] | viability at 4 µM [2] | viability at 10 µM [2] | viability at 4 µM [3] | viability at 10 µM [3] | viability at 4 µM [4] | viability at 10 µM [4] | viability at 4 µM [5] | viability at 10 µM [5] | viability at 4 µM [6] | viability at 10 µM [6]
8 | 0.5 to 5 µM | 0.5 to 5 µM | 0.5 to 5 µM | 0.5 to 5 µM | 0.5 to 5 µM | 0.5 to 5 µM | Cc1cc(C)nc(Nc2ccc(Nc3nc4ccccc4c(N4CCC(NC(C)(C)C)CC4)c3C#N)cc2)n1 [Compound 3276CN, 2-{4-[(4,6-dimethylpyrimidin-2-yl)amino]phenylamino}-3-cyano-4-[4-(tert-butylamino)piperidin-1-yl]quinoline] | 2.9% | 1% | 41.2% | 1% | 38.5% | 0.9% | 4.5% | 0.9% | 51.9% | 1% | 0.9% | 0.9%
9 | – | 0.5 to 5 µM | – | – | – | – | O=C(C1CCN(c2cc(NCc3ccc(Cl)cc3)nc3ccccc23)CC1)N1CCCC1 [Compound 1648, 2-(4-chlorobenzylamino)-4-[4-(pyrrolidine-1-carbonyl)piperidin-1-yl]quinoline, hydrochloride] | – | – | – | – | – | – | – | – | – | – | – | –
10 | 0.5 to 5 µM | 0.5 to 5 µM | 0.5 to 5 µM | 5 to 10 µM | 0.5 to 5 µM | 0.5 to 5 µM | OC[C@H]1CCCN1c1cc(NCc2ccc(Cl)cc2)nc2ccccc12 [Compound 2380, (2R)-2-(4-chlorobenzylamino)-4-[2-(hydroxymethyl)-pyrrolidin-1-yl]-quinoline hydrochloride] | – | – | – | – | – | – | – | – | – | – | – | –
11 | 0.5 to 5 µM | 0.5 to 5 µM | 0.5 to 5 µM | 5 to 10 µM | 0.5 to 5 µM | 0.5 to 5 µM | COC[C@@H]1CCCN1c1cc(NCc2ccc(Cl)cc2)nc2ccccc12 [Compound 2310, (2S) 2-(4-chlorobenzylamino)-4-[2-(methoxymethyl)pyrrolidin-1-yl]quinoline, hydrochloride] | – | – | – | – | – | – | – | – | – | – | – | –
12 | 0.5 to 5 µM | 0.5 to 5 µM | 0.5 to 5 µM | 0.5 to 5 µM | 0.5 to 5 µM | 0.5 to 5 µM | CN1CCN(C(=O)C2CCN(c3cc(NCc4ccc(Cl)cc4)nc4ccccc34)CC2)CC1 [Compound 1656, 2-(4-chlorobenzylamino)-4-[4-(4-methylpiperazine-1-carbonyl)-piperidin-1-yl]-quinoline hydrochloride] | – | – | – | – | – | – | – | – | – | – | – | –
13 | 5 to 10 µM | 0.5 to 5 µM | 0.5 to 5 µM | 5 to 10 µM | 5 to 10 µM | 5 to 10 µM | CC(C)(C)NC(=O)C1CCN(c2cc(NCc3ccc(Cl)cc3)nc3ccccc23)CC1 [Compound 1604, 2-(4-chlorobenzylamino)-4-[4-(tert-butylaminocarbonyl)-piperidin-1-yl]-quinoline hydrochloride] | – | – | – | – | – | – | – | – | – | – | – | –
14 | 0.5 to 5 µM | – | 0.5 to 5 µM | 0.5 to 5 µM | 0.5 to 5 µM | 0.5 to 5 µM | Cc1cc(F)cc2c(N3CCC(NC(C)(C)C)CC3)cc(NCc3ccc(Cl)cc3)nc12 [Compound 580, 2-(4-chlorobenzylamino)-4-[4-(tert-butylamino)piperidin-1-yl]-6-fluoro-8-methylquinoline] | – | – | – | – | – | – | – | – | – | – | – | –
15 | 5 to 10 µM | 0.5 to 5 µM | 0.5 to 5 µM | 5 to 10 µM | – | 5 to 10 µM | OC1CCN(c2cc(NCc3ccc(Cl)cc3)nc3ccccc23)CC1 [Compound 2916, 2-(4-chlorobenzylamino)-4-(4-hydroxypiperidin-1-yl)quinoline, hydrochloride] | – | – | – | – | – | – | – | – | – | – | – | –
